#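 Results reflect a 48-hour exposure of cells in 96-well plates to compound at five concentrations. The concentration for 50% growth inhibition is given as GI50. TGI: total growth inhibition.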
# Key:
# Assay in all cases: growth of human tumour cells (NCI), 48 h
# MCF7 breast = test system: MCF7 breast
# SK-MEL-5 melanoma = test system: SK-MEL-5 melanoma
# RXF 393 renal = test system: RXF 393 renal
# HCT-116 colon = test system: HCT-116 colon
# DU-145 prostate = test system: DU-145 prostate
# OVCAR-3 ovarian = test system: OVCAR-3 ovarian
# 786-0 renal = test system: 786-0 renal
# ACHN renal = test system: ACHN renal
# PC-3 prostate = test system: PC-3 prostate
# HCT-15 colon = test system: HCT-15 colon
# EKVX NSCLC = test system: EKVX NSCLC
# NCI-H23 lung = test system: NCI-H23 lung
# MDA-MB-231 breast = test system: MDA-MB-231 breast
# HL-60(TB) leukemia = test system: HL-60(TB) leukemia
# SF-268 CNS = test system: SF-268 CNS
# SK-MEL-2 melanoma = test system: SK-MEL-2 melanoma
# SNB-75 CNS = test system: SNB-75 CNS
# MOLT-4 leukemia = test system: MOLT-4 leukemia
# HS 578T breast = test system: HS 578T breast
# NCI/ADR-RES ovarian = test system: NCI/ADR-RES ovarian
# SN12C renal = test system: SN12C renal
# BT-549 breast = test system: BT-549 breast
# SW-620 colon = test system: SW-620 colon
# NCI-H226 lung = test system: NCI-H226 lung
# K-562 leukemia = test system: K-562 leukemia
# LOX IMVI melanoma = test system: LOX IMVI melanoma
# IGROV1 ovarian = test system: IGROV1 ovarian
# SK-OV-3 ovarian = test system: SK-OV-3 ovarian
# A549 NSCLC = test system: A549 NSCLC
# KM12 colon = test system: KM12 colon
# M14 melanoma = test system: M14 melanoma
# A498 renal = test system: A498 renal
# RPMI-8226 leukemia = test system: RPMI-8226 leukemia
# NCI-H522 lung = test system: NCI-H522 lung
# HCC-2998 colon = test system: HCC-2998 colon
# SF-295 CNS = test system: SF-295 CNS
# U251 CNS = test system: U251 CNS
# SK-MEL-28 melanoma = test system: SK-MEL-28 melanoma
# COLO 205 colon = test system: COLO 205 colon
# CAKI-1 renal = test system: CAKI-1 renal
# MALME-3M melanoma = test system: MALME-3M melanoma
# MDA-MB-435 = test system: MDA-MB-435
# HOP-92 NSCLC = test system: HOP-92 NSCLC
# HT29 colon = test system: HT29 colon
# UO-31 renal = test system: UO-31 renal
# TK-10 renal = test system: TK-10 renal
# SNB-19 CNS = test system: SNB-19 CNS
# CCRF-CEM leukemia = test system: CCRF-CEM leukemia
# HOP-62 NSCLC = test system: HOP-62 NSCLC
# OVCAR-8 ovarian = test system: OVCAR-8 ovarian
# UACC-62 melanoma = test system: UACC-62 melanoma
# UACC-257 melanoma = test system: UACC-257 melanoma
# T-47D breast = test system: T-47D breast
# SF-539 CNS = test system: SF-539 CNS
# OVCAR-5 ovarian = test system: OVCAR-5 ovarian
# NCI-H460 lung = test system: NCI-H460 lung
compound,measurement,setting,value
CCCc1cc2cc(-n3nc(CC)c4c3CC(C)(C)CC4=O)cc(NC3CCC(O)CC3)c2c(=O)[nH]1 (configuration not stated),GI50,MCF7 breast,289 nM
same,TGI,MCF7 breast,> 100000 nM
same,GI50,SK-MEL-5 melanoma,1940 nM
same,TGI,SK-MEL-5 melanoma,> 100000 nM
same,GI50,RXF 393 renal,408 nM
same,TGI,RXF 393 renal,2410 nM
same,GI50,HCT-116 colon,193 nM
same,TGI,HCT-116 colon,> 100000 nM
same,GI50,DU-145 prostate,530 nM
same,TGI,DU-145 prostate,> 100000 nM
same,GI50,OVCAR-3 ovarian,4430 nM
same,TGI,OVCAR-3 ovarian,> 100000 nM
same,GI50,786-0 renal,2950 nM
same,TGI,786-0 renal,> 100000 nM
same,GI50,ACHN renal,495 nM
same,TGI,ACHN renal,> 100000 nM
same,GI50,PC-3 prostate,1310 nM
same,TGI,PC-3 prostate,> 100000 nM
same,GI50,HCT-15 colon,400 nM
same,TGI,HCT-15 colon,> 100000 nM
same,GI50,EKVX NSCLC,> 100000 nM
same,TGI,EKVX NSCLC,> 100000 nM
same,GI50,NCI-H23 lung,127 nM
same,TGI,NCI-H23 lung,50800 nM
same,GI50,MDA-MB-231 breast,652 nM
same,TGI,MDA-MB-231 breast,> 100000 nM
same,GI50,HL-60(TB) leukemia,315 nM
same,TGI,HL-60(TB) leukemia,> 100000 nM
same,GI50,SF-268 CNS,7290 nM
same,TGI,SF-268 CNS,> 100000 nM
same,GI50,SK-MEL-2 melanoma,2270 nM
same,TGI,SK-MEL-2 melanoma,> 100000 nM
same,GI50,SNB-75 CNS,6220 nM
same,TGI,SNB-75 CNS,> 100000 nM
same,GI50,MOLT-4 leukemia,503 nM
same,TGI,MOLT-4 leukemia,> 100000 nM
same,GI50,HS 578T breast,3490 nM
same,TGI,HS 578T breast,> 100000 nM
same,GI50,NCI/ADR-RES ovarian,3880 nM
same,TGI,NCI/ADR-RES ovarian,> 100000 nM
same,GI50,SN12C renal,365 nM
same,TGI,SN12C renal,> 100000 nM
same,GI50,BT-549 breast,2300 nM
same,TGI,BT-549 breast,> 100000 nM
same,GI50,SW-620 colon,370 nM
same,TGI,SW-620 colon,> 100000 nM
same,GI50,NCI-H226 lung,2620 nM
same,TGI,NCI-H226 lung,> 100000 nM
same,GI50,K-562 leukemia,185 nM
same,TGI,K-562 leukemia,> 100000 nM
same,GI50,LOX IMVI melanoma,198 nM
same,TGI,LOX IMVI melanoma,> 100000 nM
same,GI50,IGROV1 ovarian,831 nM
same,TGI,IGROV1 ovarian,> 100000 nM
same,GI50,SK-OV-3 ovarian,409 nM
same,TGI,SK-OV-3 ovarian,> 100000 nM
same,GI50,A549 NSCLC,1460 nM
same,TGI,A549 NSCLC,> 100000 nM
same,GI50,KM12 colon,758 nM
same,TGI,KM12 colon,> 100000 nM
same,GI50,M14 melanoma,572 nM
same,TGI,M14 melanoma,> 100000 nM
same,GI50,A498 renal,2020 nM
same,TGI,A498 renal,> 100000 nM
same,GI50,RPMI-8226 leukemia,1580 nM
same,TGI,RPMI-8226 leukemia,> 100000 nM
same,GI50,NCI-H522 lung,1010 nM
same,TGI,NCI-H522 lung,11500 nM
same,GI50,HCC-2998 colon,842 nM
same,TGI,HCC-2998 colon,> 100000 nM
same,GI50,SF-295 CNS,759 nM
same,TGI,SF-295 CNS,> 100000 nM
same,GI50,U251 CNS,3370 nM
same,TGI,U251 CNS,> 100000 nM
same,GI50,SK-MEL-28 melanoma,869 nM
same,TGI,SK-MEL-28 melanoma,> 100000 nM
same,GI50,COLO 205 colon,464 nM
same,TGI,COLO 205 colon,> 100000 nM
same,GI50,CAKI-1 renal,1130 nM
same,TGI,CAKI-1 renal,> 100000 nM
same,GI50,MALME-3M melanoma,839 nM
same,TGI,MALME-3M melanoma,> 100000 nM
same,GI50,MDA-MB-435,444 nM
same,TGI,MDA-MB-435,> 100000 nM
same,GI50,HOP-92 NSCLC,1710 nM
same,TGI,HOP-92 NSCLC,8600 nM
same,GI50,HT29 colon,100 nM
same,TGI,HT29 colon,> 100000 nM
same,GI50,UO-31 renal,568 nM
same,TGI,UO-31 renal,> 100000 nM
same,GI50,TK-10 renal,621 nM
same,TGI,TK-10 renal,> 100000 nM
same,GI50,SNB-19 CNS,3020 nM
same,TGI,SNB-19 CNS,> 100000 nM
same,GI50,CCRF-CEM leukemia,1340 nM
same,TGI,CCRF-CEM leukemia,> 100000 nM
same,GI50,HOP-62 NSCLC,836 nM
same,TGI,HOP-62 NSCLC,> 100000 nM
same,GI50,OVCAR-8 ovarian,2040 nM
same,TGI,OVCAR-8 ovarian,> 100000 nM
same,GI50,UACC-62 melanoma,487 nM
same,TGI,UACC-62 melanoma,> 100000 nM
same,GI50,UACC-257 melanoma,3000 nM
same,TGI,UACC-257 melanoma,> 100000 nM
same,GI50,T-47D breast,2060 nM
same,TGI,T-47D breast,> 100000 nM
same,GI50,SF-539 CNS,1720 nM
same,TGI,SF-539 CNS,89300 nM
same,GI50,OVCAR-5 ovarian,3510 nM
same,TGI,OVCAR-5 ovarian,> 100000 nM
same,GI50,NCI-H460 lung,482 nM
same,TGI,NCI-H460 lung,> 100000 nM
